According to US9763943B2, “Trk-inhibiting compound” (ONO PHARMACEUTICAL CO., LTD., priority 2013, dated 2017):

System: sodium monoiodoacetate (MIA)-induced model rats
Test: Analgesic effect on sodium monoiodoacetate-induced model rats (right hind limb weight load ratio)
Assay type: in vivo, rat
[1] = day 24, test substance oral twice a day over 10 days, 3 hours after last administration, experiment with tramadol as positive control (Table 7)
[2] = day 24, test substance oral twice a day over 10 days, 3 hours after last administration, experiment with morphine as positive control (Table 8)

| Compound | Percent improvement (%) [1] | Percent improvement (%) [2] | also measured |
| --- | --- | --- | --- |
| Nc1ncc(Cl)cc1-c1ccc(Oc2ncc(NC(=O)Nc3ccc(C(F)(F)F)cc3Cl)cn2)cc1 [Example 15-6, 1-(2-(4-(2-amino-5-chloropyridin-3-yl)phenoxy)pyrimidin-5-yl)-3-(2-chloro-4-(trifluoromethyl)phenyl)urea] | 51% |  |  |
| Nc1ncc(F)cc1-c1ccc(Oc2ncc(NC(=O)Nc3cc(C(F)(F)F)ccc3-c3cccnc3)cn2)cc1 [Example 14-6, 1-(2-(4-(2-amino-5-fluoropyridin-3-yl)phenoxy)pyrimidin-5-yl)-3-(2-(pyridin-3-yl)-5-(trifluoromethyl)phenyl)urea] |  | 53% |  |
| O=C(Nc1cnc(Oc2ccc(-c3cnn4cccnc34)cc2)nc1)Nc1cc(C(F)(F)F)ccc1-c1cccnc1 [Example 21-13, 1-(2-(4-(pyrazolo[1,5-a]pyrimidin-3-yl)phenoxy)pyrimidin-5-yl)-3-(2-(pyridin-3-yl)-5-(trifluoromethyl)phenyl)urea] | 66% |  |  |
| Nc1ncc(Cl)cc1-c1ccc(Oc2ncc(NC(=O)Nc3cc(C(F)(F)F)ccc3-n3cc(Cl)cn3)cn2)cc1 [Example 15-63, 1-{2-[4-(2-amino-5-chloro-3-pyridinyl)phenoxy]-5-pyrimidinyl}-3-[2-(4-chloro-1H-pyrazol-1-yl)-5-(trifluoromethyl)phenyl]urea] |  | 53% |  |
| Nc1ncc(C(F)(F)F)cc1-c1ccc(Oc2ncc(NC(=O)Nc3cc(C(F)(F)F)ccc3-n3cc(Cl)cn3)cn2)cc1 [Example 15-87, 1-(2-{4-[2-amino-5-(trifluoromethyl)-3-pyridinyl]phenoxy}-5-pyrimidinyl)-3-[2-(4-chloro-1H-pyrazol-1-yl)-5-(trifluoromethyl)phenyl]urea] |  | 57% |  |
| CS(=O)(=O)c1ccc(C(F)(F)F)cc1NC(=O)Nc1cnc(Oc2ccc(-c3cc(Cl)cnc3N)cc2)nc1 [Example 15-104, 1-{2-[4-(2-amino-5-chloro-3-pyridinyl)phenoxy]-5-pyrimidinyl}-3-[2-(methylsulfonyl)-5-(trifluoromethyl)phenyl]urea] |  | 54% |  |
| Nc1ncc(Cl)cc1-c1ccc(Oc2ncc(NC(=O)Nc3ccc(C(F)(F)F)cc3C(F)(F)F)cn2)cc1 [Example 15-77, 1-{2-[4-(2-amino-5-chloro-3-pyridinyl)phenoxy]-5-pyrimidinyl}-3-[2,4-bis(trifluoromethyl)phenyl]urea] |  | 55% |  |
| CN(C)c1ccn2ncc(-c3ccc(Oc4ncc(NC(=O)Nc5cc(C(F)(F)F)ccc5-c5ccccc5)cn4)cc3)c2n1 [Example 21-70, 1-(2-{4-[5-(dimethylamino)pyrazolo[1,5-a]pyrimidin-3-yl]phenoxy}-5-pyrimidinyl)-3-[4-(trifluoromethyl)-2-biphenylyl]urea] |  | 61% |  |
| Nc1ncc(Cl)cc1-c1ccc(Oc2ncc(NC(=O)Nc3cc(C(F)(F)F)ccc3-c3ccccc3)cn2)cc1 [Example 15-55, 1-{2-[4-(2-amino-5-chloro-3-pyridinyl)phenoxy]-5-pyrimidinyl}-3-[4-(trifluoromethyl)-2-biphenylyl]urea] |  | 62% |  |
| COc1ccn2ncc(-c3ccc(Oc4ncc(NC(=O)Nc5cc(C(F)(F)F)ccc5-c5cccnc5)cn4)cc3)c2n1 [Example 21-9, 1-(2-(4-(5-methoxypyrazolo[1,5-a]pyrimidin-3-yl)phenoxy)pyrimidin-5-yl)-3-(2-(pyridin-3-yl)-5-(trifluoromethyl)phenyl)urea] | 64% |  |  |
| Cc1cccc(-c2ccc(C(F)(F)F)cc2NC(=O)Nc2cnc(Oc3ccc(-c4cnn5ccc(N(C)C)nc45)cc3)nc2)c1 [Example 21-73, 1-(2-{4-[5-(dimethylamino)pyrazolo[1,5-a]pyrimidin-3-yl]phenoxy}-5-pyrimidinyl)-3-[3′-methyl-4-(trifluoromethyl)-2-biphenylyl]urea] |  | 62% |  |
| CN(C)c1ccn2ncc(-c3ccc(Oc4ncc(NC(=O)Nc5cc(C(F)(F)F)ccc5-c5ccnn5C)cn4)cc3)c2n1 [Example 21-51, 1-(2-{4-[5-(dimethylamino)pyrazolo[1,5-a]pyrimidin-3-yl]phenoxy}-5-pyrimidinyl)-3-[2-(1-methyl-1H-pyrazol-5-yl)-5-(trifluoromethyl)phenyl]urea] |  | 68% |  |
| CS(=O)(=O)c1ccc(C(F)(F)F)cc1NC(=O)Nc1cnc(Oc2ccc(-c3cc(C(F)(F)F)cnc3N)cc2)nc1 [Example 15-98, 1-(2-{4-[2-amino-5-(trifluoromethyl)-3-pyridinyl]phenoxy}-5-pyrimidinyl)-3-[2-(methylsulfonyl)-5-(trifluoromethyl)phenyl]urea] |  | 57% |  |
| Nc1ncc(Cl)cc1-c1ccc(Oc2ncc(NC(=O)Nc3cc(C(F)(F)F)ccc3-n3cccn3)cn2)cc1 [Example 7, 1-(2-(1H-pyrazol-1-yl)-5-(trifluoromethyl)phenyl)-3-(2-(4-(2-amino-5-chloropyridin-3-yl)phenoxy)pyrimidin-5-yl)urea] | 61% |  |  |
| Nc1ncc(F)cc1-c1ccc(Oc2ncc(NC(=O)Nc3cc(C(F)(F)F)ccc3-n3ccnn3)cn2)cc1 [Example 14-5, 1-(2-(1H-1,2,3-triazol-1-yl)-5-(trifluoromethyl)phenyl)-3-(2-(4-(2-amino-5-fluoropyridin-3-yl)phenoxy)pyrimidin-5-yl)urea] | 47% |  |  |
| Nc1ncc(C(F)(F)F)cc1-c1ccc(Oc2ncc(NC(=O)Nc3cc(C(F)(F)F)ccc3-n3ccc(C(F)(F)F)n3)cn2)cc1 [Example 15-52, 1-(2-{4-[2-amino-5-(trifluoromethyl)-3-pyridinyl]phenoxy}-5-pyrimidinyl)-3-{5-(trifluoromethyl)-2-[3-(trifluoromethyl)-1H-pyrazol-1-yl]phenyl}urea] |  | 60% |  |
| CN(C)c1ccn2ncc(-c3ccc(Oc4ncc(NC(=O)Nc5cc(C(F)(F)F)ccc5-c5cccnc5)cn4)cc3)c2n1 [Example 21-37, 1-(2-{4-[5-(dimethylamino)pyrazolo[1,5-a]pyrimidin-3-yl]phenoxy}-5-pyrimidinyl)-3-[2-(3-pyridinyl)-5-(trifluoromethyl)phenyl]urea] |  | 67% |  |
| COc1cccc(C2(O)CCCCC2CN(C)C)c1 (stereo not shown) [Tramadol, reference compound] |  |  | Percent improvement (%) (day 24, positive control drug, 10 mg/kg subcutaneous, 1 hour after administration (Table 7)): 43% |
| Cc1cn(-c2ccc(C(F)(F)F)cc2NC(=O)Nc2cnc(Oc3ccc(-c4cc(Cl)cnc4N)cc3)nc2)nn1 [Example 8-1, 1-(2-(4-(2-amino-5-chloropyridin-3-yl)phenoxy)pyrimidin-5-yl)-3-(2-(4-methyl-1H-1,2,3-triazol-1-yl)-5-(trifluoromethyl)phenyl)urea] | 60% |  |  |
